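Cultured in 96-well plates, cells were exposed to test compound for 48 hours across five concentrations. GI50: concentration for 50% inhibition of growth.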 The source made the active and inactive calls. No stated cut-off is given here; in the data, active = GI50 up to about 1.1 µM and inactive = higher.
Experiments:
Assay in all cases: NCI anticancer screen, dose series, 48 h
[1] = tested on: MOLT-4
[2] = tested on: LOX IMVI
[3] = tested on: SK-OV-3
[4] = tested on: SW-620
[5] = tested on: TK-10
[6] = tested on: CAKI-1
[7] = tested on: IGROV-1
[8] = tested on: SNB-19
[9] = tested on: COLO 205
[10] = tested on: ACHN
[11] = tested on: SF-539
[12] = tested on: Malme-3M
[13] = tested on: EKVX
[14] = tested on: SK-MEL-28
[15] = tested on: SK-MEL-2
[16] = tested on: K562
[17] = tested on: RPMI-8226

Measured: GI50

CCOC(=O)C1=C(NC(C)(C)C)OC/C1=N\NC(=O)Cc1ccccc1
inactive: [1] > 100 µM | [2] > 100 µM | [3] > 100 µM | [4] > 100 µM | [5] > 100 µM | [6] > 100 µM | [7] > 100 µM | [8] > 100 µM | [9] > 100 µM | [10] > 100 µM | [11] > 100 µM | [12] > 100 µM | [13] > 100 µM | [14] > 100 µM | [15] > 100 µM | [16] > 100 µM

O=C(NCc1ccc2ccc3cccnc3c2n1)c1ccc[n+](Cc2ccccc2)c1
inactive: [1] > 100 µM | [2] > 100 µM | [3] > 100 µM | [4] > 100 µM | [17] 54.8 µM | [5] > 100 µM | [7] > 100 µM | [8] > 100 µM | [9] > 100 µM | [10] > 100 µM | [11] > 100 µM | [12] 75.2 µM | [13] > 100 µM | [14] > 100 µM | [15] > 100 µM | [16] 83.8 µM

COc1ccccc1OCc1nnc(SCC(=O)O)n1-c1ccccc1
inactive: [1] > 100 µM | [2] > 100 µM | [3] > 100 µM | [17] > 100 µM | [5] > 100 µM | [7] > 100 µM | [9] > 100 µM | [10] > 100 µM | [11] > 100 µM | [12] > 100 µM | [13] > 100 µM | [14] > 100 µM | [15] > 100 µM

C=CCCCCCCCC(O)C1C[C@H](O)C(CCCCC)O1 (some centres not stated)
inactive: [1] 17.7 µM | [2] 19.6 µM | [3] 20.4 µM | [4] 21.1 µM | [17] 17.1 µM | [5] 19 µM | [6] 17.9 µM | [7] 20.2 µM | [9] 18.5 µM | [10] 16.9 µM | [11] 15.8 µM | [12] 17.3 µM | [13] 19.5 µM | [14] 17.9 µM | [16] 20.7 µM

Cc1ccc(C(O)/C(=N/N)c2nc3ccc([N+](=O)[O-])cc3nc2O)cc1 (configuration not stated)
inactive: [1] > 100 µM | [2] > 100 µM | [3] > 100 µM | [4] > 100 µM | [17] 40.6 µM | [5] > 100 µM | [7] > 100 µM | [8] > 100 µM | [9] > 100 µM | [10] 47.3 µM | [12] > 100 µM | [14] > 100 µM | [15] > 100 µM | [16] 22.6 µM

CC(C)C(NCc1c2ccccc2[n+]([O-])c2ccccc12)C(=O)O (configuration not stated)
inactive: [1] 26.2 µM | [2] 33.8 µM | [3] > 100 µM | [4] 48.6 µM | [17] 28.2 µM | [5] > 100 µM | [6] > 100 µM | [7] 89.1 µM | [8] 53.3 µM | [9] > 100 µM | [10] 42.3 µM | [12] 92.7 µM | [13] > 100 µM | [14] 44.7 µM | [15] 81.1 µM | [16] 32.1 µM

COc1cc([C@@H]2OC(=O)C3C2C(=O)O[C@H]3c2ccc(O)c(OC)c2)ccc1O (some centres not stated)
inactive: [1] > 100 µM | [2] > 100 µM | [3] > 100 µM | [4] > 100 µM | [17] > 100 µM | [5] > 100 µM | [6] > 100 µM | [7] > 100 µM | [8] > 100 µM | [9] > 100 µM | [10] > 100 µM | [11] > 100 µM | [12] > 100 µM | [14] > 100 µM | [16] > 100 µM

O=C(O)/C(=C/C=C/c1ccccc1)c1csc(-c2nc(/C(=C\C=C\c3ccccc3)C(=O)O)cs2)n1
inactive: [1] 1.69 µM | [2] 29.5 µM | [3] 57.3 µM | [4] 39.4 µM | [17] 22.7 µM | [5] > 100 µM | [7] 32.7 µM | [8] 11.5 µM | [9] 22.3 µM | [10] 28 µM | [11] 21.2 µM | [12] 27.2 µM | [13] > 100 µM | [14] 33 µM | [15] 17.4 µM | [16] 21.9 µM

COC(=O)C(C(=O)C(=O)Nc1cccc([N+](=O)[O-])c1)c1nc2ccc([N+](=O)[O-])cc2nc1O (configuration not stated)
inactive: [1] > 100 µM | [2] > 100 µM | [3] > 100 µM | [4] > 100 µM | [5] > 100 µM | [6] > 100 µM | [7] > 100 µM | [8] > 100 µM | [9] > 100 µM | [10] > 100 µM | [11] > 100 µM | [12] > 100 µM | [13] > 100 µM | [14] > 100 µM | [15] > 100 µM | [16] > 100 µM

Source: ChEMBL document CHEMBL1201862, “PubChem BioAssay data set” (2004)
